According to US12037324B2, “Biarylmethyl heterocycles” (Université de Montréal, priority 2016, dated 2024):

Columns and labels:
hAT1R [1] = molecular target: T1, hAT1R (Homo sapiens, UniProt P30556); test: BRET β-arrestin2 biosensor assay, higher receptor expression (hAT1R 5 ng/well), HEK293 cells; format: cell-based; settings: for EC50: High AT1R Expression
T1 sequence (P30556 1-359): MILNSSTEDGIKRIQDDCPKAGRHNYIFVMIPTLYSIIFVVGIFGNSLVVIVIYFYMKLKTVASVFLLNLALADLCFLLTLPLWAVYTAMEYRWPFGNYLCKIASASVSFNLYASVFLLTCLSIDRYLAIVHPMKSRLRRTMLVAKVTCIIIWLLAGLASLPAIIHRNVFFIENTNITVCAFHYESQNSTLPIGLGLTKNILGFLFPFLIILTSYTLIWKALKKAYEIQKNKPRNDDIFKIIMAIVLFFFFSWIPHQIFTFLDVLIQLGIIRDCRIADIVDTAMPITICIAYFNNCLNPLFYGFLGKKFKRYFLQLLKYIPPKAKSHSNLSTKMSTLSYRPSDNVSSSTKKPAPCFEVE

hAT1R [2] = molecular target: T1, hAT1R; test: cell-based; settings: agonist mode; for EC50: read-out: BRET P63 EC50
AGTR1 [3] = molecular target: T2, AGTR1 (Homo sapiens, UniProt P30556); test: DiscoveRx β-arrestin2 recruitment assay (enzyme complementation, Pathunter CHO-K1 AGTR1 β-arrestin cell line); format: cell-based; settings: DiscoveRx β-arrestin2 recruitment; for DiscoveRx β-arrestin2 Ymax (%): maximal response
T2 construct: host or cells: Pathunter CHO-K1 AGTR1 β-arrestin cell line (CHO-K1)
T2 sequence (P30556 1-359): T1 sequence (P30556 1-359)
In short: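 CHO-K1 cells expressing AGTR1 with β-arrestin2 enzyme-complementation reporter, plated 14-16 h ahead in 1% serum medium, then exposed to compounds for 90 min at 37° C. Chemiluminescence read after 1 h detection. EC50 (agonist) or IC50 (antagonist) from 4-parameter logistic fit; activity as percentage of All maximal effect.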

AGTR1 [4] = molecular target: T2, AGTR1; test: DiscoveRx IP1 accumulation assay (HTRF), agonist mode, Pathunter CHO-K1 AGTR1 β-arrestin cell line; format: cell-based; settings: for EC50: read-out: IP-1 EC50
In short: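 Agonist mode in CHO-K1 AGTR1 β-arrestin cells plated 14-16 h before; compounds at varying concentrations for 90 min at 37° C, IP1 accumulation read by HTRF (D2-conjugate and anti-IP1 cryptate, 20 min room temperature). EC50 from 4-parameter logistic fit; activity given as percentage of maximal AII effect.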

hAT1R [5] = molecular target: T1, hAT1R; test: cell-based; settings: section of the 42nd table ending at r951, example numbering restarts after the DiscoveRx section; read-out: β-arrestin2 EC50

| SMILES | BRET β-Arrestin2 High AT1R Expression Ymax (%) (hAT1R [1]) | EC50 (hAT1R [1]) | BRET P63 Ymax (hAT1R [2]) | EC50 (hAT1R [2]) | EC50 (AGTR1 [3]) | DiscoveRx β-arrestin2 Ymax (%) (AGTR1 [3]) | IP-1 Ymax (%) (AGTR1 [4]) | EC50 (AGTR1 [4]) | EC50 (hAT1R [5]) |
| --- | --- | --- | --- | --- | --- | --- | --- | --- | --- |
| CCc1nc2c(C)cc(C)nc2n1Cc1ccc(-c2cc(-c3cn(CCO)nn3)ccc2-c2nnn[nH]2)cc1 [Example 235] | 89.5% | 29.6 nM | 17.7% | 161 nM | 56.6 nM | 56.0% | 14.9% | 213 nM | 129 nM |
| CCCn1cc(-c2ccc(-c3nnn[nH]3)c(-c3ccc(Cn4c(CC)nc5c(C)cc(C)nc54)cc3)c2)nn1 [Example 236] | 93.3% | 3.6 nM | 36.2% | 34.6 nM | 12.5 nM | 60.8% | 19.2% | 48.2 nM | 17.3 nM |
| CCc1nc2c(C)cc(C)nc2n1Cc1ccc(-c2cc(-c3cn(CC4CC4)nn3)ccc2-c2nnn[nH]2)cc1 [Example 237] | 84.4% | 16.3 nM | 21.1% | 60.5 nM | 55.3 nM | 62.3% | 13.7% | 79.7 nM | 112 nM |
| CCc1nc2c(C)cc(C)nc2n1Cc1ccc(-c2cc(-c3ccccc3)ccc2-c2nsc(=O)[nH]2)cc1 [Example 245] | 88.8% | 4.9 nM | 23.3% | 27.2 nM | 115 nM | 75.5% | 12.7% | 89.4 nM | 24.1 nM |
| CCc1nc2c(C)cc(C)nc2n1Cc1ccc(-c2cc(Oc3ccccn3)ccc2-c2nnn[nH]2)cc1 [Example 247, 2-Ethyl-5,7-dimethyl-3-((5′-(pyridin-2-yloxy)-2′-(1H-tetrazol-5-yl)-[1,1′-biphenyl]-4-yl)methyl)-3H-imidazo[4,5-b]pyridine] | 74.4% | 13.8 nM |  | > 10000 nM | 6.9 nM | 30.8% |  | > 100000 nM | 22.7 nM |
| CCc1nc2c(C)cc(C)nc2n1Cc1ccc(-c2cc(Oc3cc(C)ccn3)ccc2-c2nn[nH]n2)cc1 [Example 250] | 79.8% | 3.8 nM | 14.1% | 9.3 nM | 23 nM | 43.9% | 28.9% | 50.5 nM | 11 nM |
| CCc1nc2c(C)cc(C)nc2n1Cc1ccc(-c2cc(Oc3cc(Cl)ccn3)ccc2-c2nn[nH]n2)cc1 [Example 251] | 57.2% | 10.6 nM | 6.7% | 11.1 nM | 33.6 nM | 20.2% | 10.9% | 182 nM | 8.2 nM |
